Test results reported in patent publication US20120195840A1, “PERSONAL CARE COMPOSITION” (priority 2009, published 2012).

Biological target: T1, human tyrosinase enzyme (Homo sapiens, UniProt P14679)
T1 sequence (P14679 19-529): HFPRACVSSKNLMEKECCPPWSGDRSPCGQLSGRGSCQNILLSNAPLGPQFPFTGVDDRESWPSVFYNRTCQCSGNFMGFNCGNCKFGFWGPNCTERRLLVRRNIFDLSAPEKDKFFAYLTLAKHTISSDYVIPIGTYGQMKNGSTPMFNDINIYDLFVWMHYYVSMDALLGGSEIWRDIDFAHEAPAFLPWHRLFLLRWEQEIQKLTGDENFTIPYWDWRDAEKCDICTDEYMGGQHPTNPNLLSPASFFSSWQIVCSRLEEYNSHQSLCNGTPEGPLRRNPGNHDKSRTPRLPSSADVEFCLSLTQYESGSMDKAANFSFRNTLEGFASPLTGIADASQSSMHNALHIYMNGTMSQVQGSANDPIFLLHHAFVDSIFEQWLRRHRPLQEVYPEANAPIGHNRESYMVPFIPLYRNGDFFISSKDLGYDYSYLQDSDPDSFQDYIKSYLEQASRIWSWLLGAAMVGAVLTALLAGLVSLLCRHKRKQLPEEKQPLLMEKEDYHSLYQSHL
Assay: human tyrosinase inhibition (procedure as for mushroom tyrosinase)
Format: biochemical
Conditions: sample at 7.5 ppm
Protocol: An indication of the efficacy of skin lightening was determined using an in-vitro tyrosinanse inhibition assay using mushroom tyrosinase. The assay comprised measuring O-diphenolase activities of mushroom tyrosinase with L-DOPA as substrate. This was determined spectrophotometrically by measuring the rate of dopachrome formation at 450 nm (ε=3700 M−1 cm−1). Inhibition studies were done by measuring the dopachrome formation in the presence of various extracts of plant material. The experiment was conducted using the following procedure:
The following stock solutions were prepared. 0.1 M phosphate buffer (KH2PO4, pH=6.5); 3.5 mM L-DOPA in phosphate buffer; 1 mg/ml mushroom tyrosinase enzyme (100 kU) in phosphate buffer. To the KH2PO4 buffer (q.s. to 200 μL) in a 96 well plate having flat bottom was added the desired sample (about 6 μl) followed by 8 μL of mushroom tyrosinase enzyme. This was left at room temperature in the dark for 15 min to enable incubation. Then L-DOPA (57 μL, […]) was added to the resultant solution and the progress of dopachrome formation was observed by measuring the absorbance at 450 nm (A450) on a Tecan spectrophotometer. Percent inhibition was calculated using (Control: without inhibitor) […]

CCc1ccc(O)cc1O [Example 5, ethyl resorcinol] was tested, and the “% human tyrosinase inhibition” value was 40%.
